# In patent US20220409620A1, “REDUCING IMMUNOGENICITY TO PEGLOTICASE” (Horizon Pharma Rheumatology LLC, priority 2016, published 2022):
# Legend:
# [1] = tested on: subjects with refractory gout; details: after doses of 4 to 12 mg; from 11.1±0.6 mg/dL; cited from earlier work
# [2] = tested on: adult patients with uncontrolled gout; assay: Tender and swollen joint counts, open-label study; format: in vivo, human
# Procedure: Tender and Swollen Joint Counts: Tender and swollen (excludes hip) joint counts were recorded at the Week −4 or week −6 (prior to the first dose of MTX) Visit during the MTX Run-in Period for the open-label and randomized studies, respectively; prior to pegloticase infusion at the Day 1 and Weeks 14, 24 and 36 Visits, or at the Day 1 and weeks 6, 14, 20, 24, 30, 36, and 44 visits during the Pegloticase+IMM Period for the open-label and randomized studies, respectively; and at the End of Pegloticase Infusions Visit (if applicable) and the Week 52/End of Study/Early Termination Visit and the Post Treatment 3 and 6 month Follow-up visits. Tender and swollen joint counts were assessed by physical examination.
# [3] = Early Termination Visit, Pegloticase Baseline, mITT Population
# [4] = End of Pegloticase Infusions Visit, Pegloticase Baseline, mITT Population
# [5] = Week 14, Pegloticase Baseline, mITT Population
# [6] = Week 24, Pegloticase Baseline, mITT Population
# [7] = Week 36, Pegloticase Baseline, mITT Population
# [8] = Week 52/ET, Pegloticase Baseline, mITT Population
# [9] = mITT, Early Termination Visit, n=3
# [10] = mITT, End of Pegloticase Infusions Visit, n=2
substance,measurement,setting,value
pegloticase,"plasma urate concentration (pUAc) after dosing, mean±SD",[1],1.0±0.5 mg/dL
same,"Swollen Joint Count, Change from Baseline, Mean (SD)",[2]; [3],−3.3 (3.06)
same,"Swollen Joint Count, Change from Baseline, Median",[2]; [3],−4.0
same,"Swollen Joint Count, Observed, Mean (SD)",[2]; [3],0.7 (0.58)
same,"Swollen Joint Count, Observed, Median",[2]; [3],1.0
same,"Tender Joint Count, Change from Baseline, Mean (SD)",[2]; [3],−2.7 (4.16)
same,"Tender Joint Count, Change from Baseline, Median",[2]; [3],−4.0
same,"Tender Joint Count, Observed, Mean (SD)",[2]; [3],7.7 (8.96)
same,"Tender Joint Count, Observed, Median",[2]; [3],3.0
same,"Swollen Joint Count, Change from Baseline, Mean (SD)",[2]; [4],−2.0 (2.83)
same,"Swollen Joint Count, Change from Baseline, Median",[2]; [4],−2.0
same,"Swollen Joint Count, Observed, Mean (SD)",[2]; [4],0.0 (0.00)
same,"Swollen Joint Count, Observed, Median",[2]; [4],0.0
same,"Tender Joint Count, Change from Baseline, Mean (SD)",[2]; [4],−3.0 (5.66)
same,"Tender Joint Count, Change from Baseline, Median",[2]; [4],−3.0
same,"Tender Joint Count, Observed, Mean (SD)",[2]; [4],2.0 (2.83)
same,"Tender Joint Count, Observed, Median",[2]; [4],2.0
same,"Swollen Joint Count, Change from Baseline, Mean (SD)",[2]; [5],−3.6 (7.04)
same,"Swollen Joint Count, Change from Baseline, Median",[2]; [5],−2.5
same,"Swollen Joint Count, Observed, Mean (SD)",[2]; [5],1.7 (3.73)
same,"Swollen Joint Count, Observed, Median",[2]; [5],0.0
same,"Tender Joint Count, Change from Baseline, Mean (SD)",[2]; [5],−5.1 (8.12)
same,"Tender Joint Count, Change from Baseline, Median",[2]; [5],−5.0
same,"Tender Joint Count, Observed, Mean (SD)",[2]; [5],4.6 (6.16)
same,"Tender Joint Count, Observed, Median",[2]; [5],2.0
same,"Swollen Joint Count, Change from Baseline, Mean (SD)",[2]; [6],−5.1 (6.66)
same,"Swollen Joint Count, Change from Baseline, Median",[2]; [6],−3.0
same,"Swollen Joint Count, Observed, Mean (SD)",[2]; [6],0.5 (1.21)
same,"Swollen Joint Count, Observed, Median",[2]; [6],0.0
same,"Tender Joint Count, Change from Baseline, Mean (SD)",[2]; [6],−6.8 (8.16)
same,"Tender Joint Count, Change from Baseline, Median",[2]; [6],−4.0
same,"Tender Joint Count, Observed, Mean (SD)",[2]; [6],2.6 (3.88)
same,"Tender Joint Count, Observed, Median",[2]; [6],0.0
same,"Swollen Joint Count, Change from Baseline, Mean (SD)",[2]; [7],−6.2 (8.15)
same,"Swollen Joint Count, Change from Baseline, Median",[2]; [7],−4.0
same,"Swollen Joint Count, Observed, Mean (SD)",[2]; [7],0.1 (0.33)
same,"Swollen Joint Count, Observed, Median",[2]; [7],0.0
same,"Tender Joint Count, Change from Baseline, Mean (SD)",[2]; [7],−7.8 (8.94)
same,"Tender Joint Count, Change from Baseline, Median",[2]; [7],−4.0
same,"Tender Joint Count, Observed, Mean (SD)",[2]; [7],2.1 (4.54)
same,"Tender Joint Count, Observed, Median",[2]; [7],0.0
same,"Swollen Joint Count, Change from Baseline, Mean (SD)",[2]; [8],−13.0 (13.00)
same,"Swollen Joint Count, Change from Baseline, Median",[2]; [8],−13.0
same,"Swollen Joint Count, Observed, Mean (SD)",[2]; [8],0.0 (0.00)
same,"Swollen Joint Count, Observed, Median",[2]; [8],0.0
same,"Tender Joint Count, Change from Baseline, Mean (SD)",[2]; [8],−16.0 (17.52)
same,"Tender Joint Count, Change from Baseline, Median",[2]; [8],−15.0
same,"Tender Joint Count, Observed, Mean (SD)",[2]; [8],5.3 (3.21)
same,"Tender Joint Count, Observed, Median",[2]; [8],4.0
same,"Swollen Joint Count, Change from Methotrexate Baseline, Mean (SD)","[2]; mITT, Day 1, n=14",−0.7 (5.21)
same,"Swollen Joint Count, Change from Methotrexate Baseline, Median","[2]; mITT, Day 1, n=14",0.5
same,"Swollen Joint Count, Observed, Mean (SD)","[2]; mITT, Day 1, n=14",5.3 (6.94)
same,"Swollen Joint Count, Observed, Median","[2]; mITT, Day 1, n=14",3.5
same,"Tender Joint Count, Change from Methotrexate Baseline, Mean (SD)","[2]; mITT, Day 1, n=14",−1.9 (9.75)
same,"Tender Joint Count, Change from Methotrexate Baseline, Median","[2]; mITT, Day 1, n=14",0.0
same,"Tender Joint Count, Observed, Mean (SD)","[2]; mITT, Day 1, n=14",9.6 (11.03)
same,"Tender Joint Count, Observed, Median","[2]; mITT, Day 1, n=14",7.0
same,"Swollen Joint Count, Change from Methotrexate Baseline, Mean (SD)",[2]; [9],−1.0 (1.73)
same,"Swollen Joint Count, Change from Methotrexate Baseline, Median",[2]; [9],0.0
same,"Swollen Joint Count, Observed, Mean (SD)",[2]; [9],0.7 (0.58)
same,"Swollen Joint Count, Observed, Median",[2]; [9],1.0
same,"Tender Joint Count, Change from Methotrexate Baseline, Mean (SD)",[2]; [9],0.7 (5.13)
same,"Tender Joint Count, Change from Methotrexate Baseline, Median",[2]; [9],2.0
same,"Tender Joint Count, Observed, Mean (SD)",[2]; [9],7.7 (8.96)
same,"Tender Joint Count, Observed, Median",[2]; [9],3.0
same,"Swollen Joint Count, Change from Methotrexate Baseline, Mean (SD)",[2]; [10],−7.0 (4.24)
same,"Swollen Joint Count, Change from Methotrexate Baseline, Median",[2]; [10],−7.0
same,"Swollen Joint Count, Observed, Mean (SD)",[2]; [10],0.0 (0.00)
same,"Swollen Joint Count, Observed, Median",[2]; [10],0.0
same,"Tender Joint Count, Change from Methotrexate Baseline, Mean (SD)",[2]; [10],−12.0 (7.07)
same,"Tender Joint Count, Change from Methotrexate Baseline, Median",[2]; [10],−12.0
same,"Tender Joint Count, Observed, Mean (SD)",[2]; [10],2.0 (2.83)
same,"Tender Joint Count, Observed, Median",[2]; [10],2.0
same,"Swollen Joint Count, Change from Methotrexate Baseline, Mean (SD)","[2]; mITT, Week 14, n=14",−4.3 (7.38)
same,"Swollen Joint Count, Change from Methotrexate Baseline, Median","[2]; mITT, Week 14, n=14",−2.0
same,"Swollen Joint Count, Observed, Mean (SD)","[2]; mITT, Week 14, n=14",1.7 (3.73)
same,"Swollen Joint Count, Observed, Median","[2]; mITT, Week 14, n=14",0.0
same,"Tender Joint Count, Change from Methotrexate Baseline, Mean (SD)","[2]; mITT, Week 14, n=14",−7.0 (14.20)
same,"Tender Joint Count, Change from Methotrexate Baseline, Median","[2]; mITT, Week 14, n=14",0.0
same,"Tender Joint Count, Observed, Mean (SD)","[2]; mITT, Week 14, n=14",4.6 (6.16)
same,"Tender Joint Count, Observed, Median","[2]; mITT, Week 14, n=14",2.0
same,"Swollen Joint Count, Change from Methotrexate Baseline, Mean (SD)","[2]; mITT, Week 24, n=11",−6.6 (9.03)
same,"Swollen Joint Count, Change from Methotrexate Baseline, Median","[2]; mITT, Week 24, n=11",−3.0
same,"Swollen Joint Count, Observed, Mean (SD)","[2]; mITT, Week 24, n=11",0.5 (1.21)
same,"Swollen Joint Count, Observed, Median","[2]; mITT, Week 24, n=11",0.0
same,"Tender Joint Count, Change from Methotrexate Baseline, Mean (SD)","[2]; mITT, Week 24, n=11",−10.2 (14.27)
same,"Tender Joint Count, Change from Methotrexate Baseline, Median","[2]; mITT, Week 24, n=11",−4.0
same,"Tender Joint Count, Observed, Mean (SD)","[2]; mITT, Week 24, n=11",2.6 (3.88)
same,"Tender Joint Count, Observed, Median","[2]; mITT, Week 24, n=11",0.0
same,"Swollen Joint Count, Change from Methotrexate Baseline, Mean (SD)","[2]; mITT, Week 36, n=9",−7.8 (10.81)
same,"Swollen Joint Count, Change from Methotrexate Baseline, Median","[2]; mITT, Week 36, n=9",−3.0
same,"Swollen Joint Count, Observed, Mean (SD)","[2]; mITT, Week 36, n=9",0.1 (0.33)
same,"Swollen Joint Count, Observed, Median","[2]; mITT, Week 36, n=9",0.0
same,"Tender Joint Count, Change from Methotrexate Baseline, Mean (SD)","[2]; mITT, Week 36, n=9",−12.3 (14.56)
same,"Tender Joint Count, Change from Methotrexate Baseline, Median","[2]; mITT, Week 36, n=9",−7.0
same,"Tender Joint Count, Observed, Mean (SD)","[2]; mITT, Week 36, n=9",2.1 (4.54)
same,"Tender Joint Count, Observed, Median","[2]; mITT, Week 36, n=9",0.0
same,"Swollen Joint Count, Change from Methotrexate Baseline, Mean (SD)","[2]; mITT, Week 52/ET, n=3",−21.0 (9.64)
same,"Swollen Joint Count, Change from Methotrexate Baseline, Median","[2]; mITT, Week 52/ET, n=3",−25.0
same,"Swollen Joint Count, Observed, Mean (SD)","[2]; mITT, Week 52/ET, n=3",0.0 (0.00)
same,"Swollen Joint Count, Observed, Median","[2]; mITT, Week 52/ET, n=3",0.0
same,"Tender Joint Count, Change from Methotrexate Baseline, Mean (SD)","[2]; mITT, Week 52/ET, n=3",−24.0 (21.38)
same,"Tender Joint Count, Change from Methotrexate Baseline, Median","[2]; mITT, Week 52/ET, n=3",−17.0
same,"Tender Joint Count, Observed, Mean (SD)","[2]; mITT, Week 52/ET, n=3",5.3 (3.21)
same,"Tender Joint Count, Observed, Median","[2]; mITT, Week 52/ET, n=3",4.0
